Reference: patent publication US9999619B2, “Piperidin-4-yl azetidine derivatives as JAK1 inhibitors” (Incyte Corporation, priority 2010, dated 2018)
Structures can show the parent of a compound that is named as a salt.

Legend:
Assay type in all cases: biochemical
[1] = target: human JAK1 (a.a. 837-1142); experiment: In vitro JAK kinase assay (HTRF, phosphorylation of a biotinylated peptide), JAK1; settings: ratio of JAK2 IC50 to JAK1 IC50, measured at 1 mM ATP
Procedure, shortened: (§1)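 N-terminal His-tagged catalytic domains, baculovirus-expressed in insect cells, phosphorylated a biotinylated peptide for 1 hr at room temperature. EDTA stop was followed by SA-APC and Eu-Py20 antibody for 40 minutes, with phosphopeptide read by HTRF.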

[2] = target: human JAK1 (a.a. 837-1142) (Homo sapiens, UniProt P23458); experiment: as above; settings: measured at 1 mM ATP
Procedure, shortened: as §1

[3] = target: Jak2 (a.a. 828-1132) (Homo sapiens (Human), UniProt O60674); experiment: In vitro JAK kinase assay (HTRF, phosphorylation of a biotinylated peptide), JAK2; settings: measured at 1 mM ATP
Procedure, shortened: as §1

Chain of Jak2 (a.a. 828-1132) (O60674 828-1132): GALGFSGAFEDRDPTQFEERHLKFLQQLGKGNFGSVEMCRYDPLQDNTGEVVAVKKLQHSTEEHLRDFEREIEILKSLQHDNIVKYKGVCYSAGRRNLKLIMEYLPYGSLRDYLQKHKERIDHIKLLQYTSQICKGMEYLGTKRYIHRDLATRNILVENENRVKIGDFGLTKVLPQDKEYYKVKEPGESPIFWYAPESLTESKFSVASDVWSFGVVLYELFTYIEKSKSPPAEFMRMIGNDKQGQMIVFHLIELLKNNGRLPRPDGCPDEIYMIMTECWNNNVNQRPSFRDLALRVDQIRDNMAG

| Compound | IC50 Ratio JAK2/JAK1 [1] | IC50 [2] | IC50 [3] |
| --- | --- | --- | --- |
| N#CCC1(n2cc(-c3ncnc4[nH]ccc34)cn2)CN(C2CCN(C(=O)c3cc(Cl)sc3Cl)CC2)C1 [Example 30, {1-{1-[(2,5-dichloro-3-thienyl)carbonyl]piperidin-4-yl}-3-[4-(7H-pyrrolo[2,3-d]pyrimidin-4-yl)-1H-pyrazol-1-yl]azetidin-3-yl}acetonitrile] | 2.8 | ≤ 5 nM | ≤ 10 nM |
| N#CCC1(n2cc(-c3ncnc4[nH]ccc34)cn2)CN(C2CCN(C(=O)C3CCCC3)CC2)C1 [Example 101, {1-[1-(cyclopentylcarbonyl)piperidin-4-yl]-3-[4-(7H-pyrrolo[2,3-d]pyrimidin-4-yl)-1H-pyrazol-1-yl]azetidin-3-yl}acetonitrile] | 8.3 | 5 to 20 nM | > 100 nM |
| COc1cc(OC)cc(C(=O)N2CCC(N3CC(CC#N)(n4cc(-c5ncnc6[nH]ccc56)cn4)C3)CC2)c1 [Example 33, {1-[1-(3,5-dimethoxybenzoyl)piperidin-4-yl]-3-[4-(7H-pyrrolo[2,3-d]pyrimidin-4-yl)-1H-pyrazol-1-yl]azetidin-3-yl}acetonitrile] | 0.5 | ≤ 5 nM | ≤ 10 nM |
| N#CCC1(n2cc(-c3ncnc4[nH]ccc34)cn2)CN(C2CCN(C(=O)c3ccc(-c4ccccc4C#N)c(F)c3)CC2)C1 [Example 124, 4′-[(4-{3-(cyanomethyl)-3-[4-(7H-pyrrolo[2,3-d]pyrimidin-4-yl)-1H-pyrazol-1-yl]azetidin-1-yl}piperidin-1-yl)carbonyl]-2′-fluorobiphenyl-2-carbonitrile] | 8.4 | ≤ 5 nM | ≤ 10 nM |
| N#CCC1(n2cc(-c3ncnc4[nH]ccc34)cn2)CN(C2CCN(Cc3ccc(C#N)c(F)c3)CC2)C1 [Example 229, 4-[(4-{3-(cyanomethyl)-3-[4-(7H-pyrrolo[2,3-d]pyrimidin-4-yl)-1H-pyrazol-1-yl]azetidin-1-yl}piperidin-1-yl)methyl]-2-fluorobenzonitrile] | 6.4 | 5 to 20 nM | 50 to 100 nM |
| N#CCC1(n2cc(-c3ncnc4[nH]ccc34)cn2)CN(C2CCN(C(=O)c3ccccc3F)CC2)C1 [Example 67, {1-[1-(2-fluorobenzoyl)piperidin-4-yl]-3-[4-(7H-pyrrolo[2,3-d]pyrimidin-4-yl)-1H-pyrazol-1-yl]azetidin-3-yl}acetonitrile] | 4.7 | ≤ 5 nM | ≤ 10 nM |
| N#CCC1(n2cc(-c3ncnc4[nH]ccc34)cn2)CN(C2CCN(C(=O)Nc3ncc(F)cc3F)CC2)C1 [Example 203, 4-{3-(cyanomethyl)-3-[4-(7H-pyrrolo[2,3-d]pyrimidin-4-yl)-1H-pyrazol-1-yl]azetidin-1-yl}-N-(3,5-difluoropyridin-2-yl)piperidine-1-carboxamide] | 8.6 | 5 to 20 nM | 50 to 100 nM |
| N#CCC1(n2cc(-c3ncnc4[nH]ccc34)cn2)CN(C2CCN(Cc3ccc(F)c(C#N)c3)CC2)C1 [Example 220, 5-[(4-{3-(cyanomethyl)-3-[4-(7H-pyrrolo[2,3-d]pyrimidin-4-yl)-1H-pyrazol-1-yl]azetidin-1-yl}piperidin-1-yl)methyl]-2-fluorobenzonitrile] | 4.4 | 5 to 20 nM | 50 to 100 nM |
| N#CCC1(n2cc(-c3ncnc4[nH]ccc34)cn2)CN(C2CCN(C(=O)c3cc(F)cc(Cl)c3)CC2)C1 [Example 28, {1-[1-(3-chloro-5-fluorobenzoyl)piperidin-4-yl]-3-[4-(7H-pyrrolo[2,3-d]pyrimidin-4-yl)-1H-pyrazol-1-yl]azetidin-3-yl}acetonitrile] | 8.5 | ≤ 5 nM | ≤ 10 nM |
| Cc1ccc(Cl)cc1NC(=O)N1CCC(N2CC(CC#N)(n3cc(-c4ncnc5[nH]ccc45)cn3)C2)CC1 [Example 168, N-(5-chloro-2-methylphenyl)-4-{3-(cyanomethyl)-3-[4-(7H-pyrrolo[2,3-d]pyrimidin-4-yl)-1H-pyrazol-1-yl]azetidin-1-yl}piperidine-1-carboxamide] | 2.6 | ≤ 5 nM | ≤ 10 nM |
| N#CCC1(n2cc(-c3ncnc4[nH]ccc34)cn2)CN(C2CCN(C(=O)c3ccc(-c4ccc(F)c(F)c4)c(F)c3)CC2)C1 [Example 127, (3-[4-(7H-pyrrolo[2,3-d]pyrimidin-4-yl)-1H-pyrazol-1-yl]-1-{1-[(2,3′,4′-trifluorobiphenyl-4-yl)carbonyl]piperidin-4-yl}azetidin-3-yl)acetonitrile] | 4.3 | 5 to 20 nM | 10 to 50 nM |

The remaining lines, values ahead:

| IC50 Ratio JAK2/JAK1 [1] | IC50 [2] | IC50 [3] | Compound |
| --- | --- | --- | --- |
| 4.4 | ≤ 5 nM | ≤ 10 nM | N#CCC1(n2ccc(-c3ncnc4[nH]ccc34)c2)CN(C2CCN(C(=O)c3cc(C(F)(F)F)ccc3F)CC2)C1 [Example 273, {1-{1-[2-fluoro-5-(trifluoromethyl)benzoyl]piperidin-4-yl}-3-[3-(7H-pyrrolo[2,3-d]pyrimidin-4-yl)-1H-pyrrol-1-yl]azetidin-3-yl}acetonitrile] |
| 2.3 | 5 to 20 nM | 10 to 50 nM | COc1ccc(CN2CCC(N3CC(CC#N)(n4cc(-c5ncnc6[nH]ccc56)cn4)C3)CC2)c(Cl)c1OC [Example 239, {1-[1-(2-chloro-3,4-dimethoxybenzyl)piperidin-4-yl]-3-[4-(7H-pyrrolo[2,3-d]pyrimidin-4-yl)-1H-pyrazol-1-yl]azetidin-3-yl}acetonitrile] |
| 5.5 | 5 to 20 nM | 50 to 100 nM | N#CCC1(n2cc(-c3ncnc4[nH]ccc34)cn2)CN(C2CCN(C(=O)c3cc(C(F)(F)F)ncc3F)CC2)C1 [Example 343, {1-{1-[5-Fluoro-2-(trifluoromethyl)isonicotinoyl]piperidin-4-yl}-3-[4-(7H-pyrrolo[2,3-d]pyrimidin-4-yl)-1H-pyrazol-1-yl]azetidin-3-yl}acetonitrile] |
| 6.5 | 5 to 20 nM | 10 to 50 nM | N#CCC1(n2ccc(-c3ncnc4[nH]ccc34)c2)CN(C2CCN(C(=O)c3ccc(C(F)(F)F)cc3F)CC2)C1 [Example 272, {1-{1-[2-fluoro-4-(trifluoromethyl)benzoyl]piperidin-4-yl}-3-[3-(7H-pyrrolo[2,3-d]pyrimidin-4-yl)-1H-pyrrol-1-yl]azetidin-3-yl}acetonitrile] |
| 1.4 | 20 to 30 nM | 10 to 50 nM | N#CCC1(n2cc(-c3c(C#N)cnc4[nH]ccc34)cn2)CN(C2CCN(C(=O)c3c(F)cc(C#N)cc3F)CC2)C1 [Example 340, 4-{1-[1-[1-(4-cyano-2,6-difluorobenzoyl)piperidin-4-yl]-3-(cyanomethyl)azetidin-3-yl]-1H-pyrazol-4-yl}-1H-pyrrolo[2,3-b]pyridine-5-carbonitrile] |
| 16.0 | ≤ 5 nM | 50 to 100 nM | N#CCC1(n2cc(-c3ccnc4[nH]ccc34)cn2)CN(C2CCN(C(=O)Nc3ccc(F)cc3Cl)CC2)C1 [Example 305, N-(2-chloro-4-fluorophenyl)-4-{3-(cyanomethyl)-3-[4-(1H-pyrrolo[2,3-b]pyridin-4-yl)-1H-pyrazol-1-yl]azetidin-1-yl}piperidine-1-carboxamide] |
| 4.2 | ≤ 5 nM | 10 to 50 nM | N#CCC1(n2cc(-c3ncnc4[nH]ccc34)cn2)CN(C2CCN(Cc3ccc4c(c3)OCCO4)CC2)C1 [Example 234, {1-[1-(2,3-dihydro-1,4-benzodioxin-6-ylmethyl)piperidin-4-yl]-3-[4-(7H-pyrrolo[2,3-d]pyrimidin-4-yl)-1H-pyrazol-1-yl]azetidin-3-yl}acetonitrile] |
| 36.9 | ≤ 5 nM | 50 to 100 nM | N#CCC1(n2cc(-c3ncnc4[nH]ccc34)cn2)CN(C2CCN(C(=O)c3cc(CN4CCC(F)(F)C4)nc(C(F)(F)F)n3)CC2)C1 [Example 379, {1-(1-{[6-[(3,3-difluoropyrrolidin-1-yl)methyl]-2-(trifluoromethyl)pyrimidin-4-yl]carbonyl}piperidin-4-yl)-3-[4-(7H-pyrrolo[2,3-d]pyrimidin-4-yl)-1H-pyrazol-1-yl]azetidin-3-yl}acetonitrile (trifluoroacetate salt: 4 TFA)] |
| 12.7 | ≤ 5 nM | 10 to 50 nM | CN(C)Cc1cc(C(=O)N2CCC(N3CC(CC#N)(n4cc(-c5ncnc6[nH]ccc56)cn4)C3)CC2)cc(C(F)F)c1 [Example 375, {1-(1-{3-(difluoromethyl)-5-[(dimethylamino)methyl]benzoyl}piperidin-4-yl)-3-[4-(7H-pyrrolo[2,3-d]pyrimidin-4-yl)-1H-pyrazol-1-yl]azetidin-3-yl}acetonitrile] |
| 6.6 | 5 to 20 nM | 50 to 100 nM | N#CCC1(n2ccc(-c3ncnc4[nH]ccc34)c2)CN(C2CCN(C(=O)c3ccc(C(F)(F)F)c(F)c3)CC2)C1 [Example 267, {1-{1-[3-fluoro-4-(trifluoromethyl)benzoyl]piperidin-4-yl}-3-[3-(7H-pyrrolo[2,3-d]pyrimidin-4-yl)-1H-pyrrol-1-yl]azetidin-3-yl}acetonitrile] |
| 6.6 | 5 to 20 nM | 50 to 100 nM | N#CCC1(n2ccc(-c3ncnc4[nH]ccc34)c2)CN(C2CCN(C(=O)c3cc(F)ccc3C(F)(F)F)CC2)C1 [Example 266, {1-{1-[5-fluoro-2-(trifluoromethyl)benzoyl]piperidin-4-yl}-3-[3-(7H-pyrrolo[2,3-d]pyrimidin-4-yl)-1H-pyrrol-1-yl]azetidin-3-yl}acetonitrile] |
| 5.1 | 5 to 20 nM | 10 to 50 nM | N#CCC1(n2cc(-c3ccnc4[nH]ccc34)cn2)CN(C2CCN(C(=O)c3ccc(C#N)cc3F)CC2)C1 [Example 295, 4-[(4-{3-(cyanomethyl)-3-[4-(1H-pyrrolo[2,3-b]pyridin-4-yl)-1H-pyrazol-1-yl]azetidin-1-yl}piperidin-1-yl)carbonyl]-3-fluorobenzonitrile] |
